# Results taken from the supplement of paper PMC10307832.
# Key:
# Experiment in all cases: relative viability (nuclei count vs DMSO), 5 days (fraction); higher = more cells survive
# [1] = tested on: NCI-H1650
# Procedure, shortened: (§1)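 Five library-drug doses in √10 steps were combined with a fixed anchor-drug dose, or a single drug was given alone, by pin tool to lung cancer cell lines in 1536-well plates the day after seeding. Nuclei were stained and counted after 5 days. Relative viability is the nuclei count in treated wells over that in vehicle wells, taken as the median of duplicate plates.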
# [2] = tested on: PC-3 [JPC-3]
# Procedure, shortened: as §1
# [3] = tested on: NCI-H520
# Procedure, shortened: as §1
# [4] = tested on: NCI-H1975
# Procedure, shortened: as §1
# [5] = tested on: CAL-12T
# Procedure, shortened: as §1
# [6] = tested on: EKVX
# Procedure, shortened: as §1
# [7] = tested on: NCI-H322M
# Procedure, shortened: as §1
# [8] = tested on: HCC-827
# Procedure, shortened: as §1
# [9] = tested on: RERF-LC-KJ
# Procedure, shortened: as §1
# [10] = tested on: LCLC-97TM1
# Procedure, shortened: as §1
# [11] = tested on: HCC-15
# Procedure, shortened: as §1
smiles,measurement,setting,value
Cc1sc2c(c1C)C(c1ccc(Cl)cc1)=N[C@@H](CC(=O)OC(C)(C)C)c1nnc(C)n1-2 [JQ1] + Cc1cc(Nc2cc(N3CCN(C)CC3)nc(Sc3ccc(NC(=O)C4CC4)cc3)n2)n[nH]1 [Tozasertib] (partner 0.1 µM),relative viability,[1]; first compound 0.1265 µM,0.289
same,relative viability,[1]; first compound 0.4 µM,0.284
same,relative viability,[1]; first compound 1.265 µM,0.124
same,relative viability,[1]; first compound 4 µM,0.135
same,relative viability,[2]; first compound 0.04 µM,0.924
same,relative viability,[2]; first compound 0.1265 µM,0.935
same,relative viability,[2]; first compound 0.4 µM,0.588
same,relative viability,[2]; first compound 1.265 µM,0.502
same,relative viability,[2]; first compound 4 µM,0.296
same,relative viability,[3]; first compound 0.04 µM,0.508
same,relative viability,[3]; first compound 0.1265 µM,0.406
same,relative viability,[3]; first compound 0.4 µM,0.332
same,relative viability,[3]; first compound 1.265 µM,0.296
same,relative viability,[3]; first compound 4 µM,0.25
same,relative viability,[4]; first compound 0.04 µM,0.75
same,relative viability,[4]; first compound 0.1265 µM,0.515
same,relative viability,[4]; first compound 0.4 µM,0.487
same,relative viability,[4]; first compound 1.265 µM,0.214
same,relative viability,[4]; first compound 4 µM,0.171
same,relative viability,[5]; first compound 0.04 µM,0.274
same,relative viability,[5]; first compound 0.1265 µM,0.238
same,relative viability,[5]; first compound 0.4 µM,0.24
same,relative viability,[5]; first compound 1.265 µM,0.132
same,relative viability,[5]; first compound 4 µM,0.122
same,relative viability,[6]; first compound 0.04 µM,0.317
same,relative viability,[6]; first compound 0.1265 µM,0.361
same,relative viability,[6]; first compound 0.4 µM,0.336
same,relative viability,[6]; first compound 1.265 µM,0.247
same,relative viability,[6]; first compound 4 µM,0.185
same,relative viability,[7]; first compound 0.04 µM,0.445
same,relative viability,[7]; first compound 0.1265 µM,0.443
same,relative viability,[7]; first compound 0.4 µM,0.427
same,relative viability,[7]; first compound 1.265 µM,0.362
same,relative viability,[7]; first compound 4 µM,0.375
same,relative viability,[8]; first compound 0.04 µM,0.398
same,relative viability,[8]; first compound 0.4 µM,0.328
same,relative viability,[8]; first compound 1.265 µM,0.27
same,relative viability,[8]; first compound 4 µM,0.213
same,relative viability,[9]; first compound 0.04 µM,0.496
same,relative viability,[9]; first compound 0.1265 µM,0.299
same,relative viability,[9]; first compound 0.4 µM,0.315
same,relative viability,[9]; first compound 1.265 µM,0.222
same,relative viability,[9]; first compound 4 µM,0.213
same,relative viability,[10]; first compound 0.04 µM,0.197
same,relative viability,[10]; first compound 0.1265 µM,0.223
same,relative viability,[10]; first compound 0.4 µM,0.171
same,relative viability,[10]; first compound 1.265 µM,0.116
same,relative viability,[10]; first compound 4 µM,0.146
same,relative viability,[11]; first compound 0.04 µM,0.417
same,relative viability,[11]; first compound 0.4 µM,0.314
same,relative viability,[11]; first compound 1.265 µM,0.119
same,relative viability,[11]; first compound 4 µM,0.0896
